Experimental data: ChEMBL document CHEMBL4831515 (J Med Chem, 2021)

Columns and labels:
[1] = test system: Human immunodeficiency virus 2; test: Antiviral activity against wild type HIV2 ROD infected in human MT4 cells assessed as reduction in virus-induced cytopathogenic effect by MTT assay; details: Human immunodeficiency virus 2, ROD
[2] = test system: Human immunodeficiency virus 1; test: Antiviral activity against HIV1 harboring L100I mutant infected in human MT4 cells assessed as reduction in virus-induced cytopathogenic effect by MTT assay; details: Human immunodeficiency virus 1, MT4
[3] = MRT (0 to infinity) in Sprague-Dawley rat at 20 mg/kg, po measured after 15 to 720 mins by LC-MS/MS analysis; assay type: ADME, organism-based; details: in vivo, time 15-720 min
[4] = test system: Human immunodeficiency virus 1; test: Antiviral activity against HIV1 harboring K103N mutant infected in human MT4 cells assessed as reduction in virus-induced cytopathogenic effect by MTT assay; assay type: functional, organism-based; details: Human immunodeficiency virus 1, MT4
[5] = Tmax in Sprague-Dawley rat at 20 mg/kg, po measured after 15 to 720 mins by LC-MS/MS analysis; assay type: ADME, organism-based; details: in vivo, time 15-720 min
[6] = Acute toxicity in ig dosed Kunming mouse measured every day for 7 days; assay type: organism-based; details: in vivo, po, time 7 day
[7] = Cytotoxicity against human MT4 cells assessed as reduction in cell viability by MTT assay
[8] = Acute toxicity in Kunming mouse assessed as mortality at 1000 mg/kg, ig measured every day for 7 days; assay type: organism-based; details: in vivo, po, 168 h, time 7 day
[9] = Volume of distribution in Sprague-Dawley rat at 2 mg/kg, iv measured after 5 to 600 mins by LC-MS/MS analysis; assay type: ADME, organism-based; details: in vivo, time 5-600 min
[10] = Acute toxicity in Kunming mouse assessed as effect on body weight at 1000 mg/kg, ig measured every day for 7 days; assay type: organism-based; details: in vivo, po, 168 h, time 7 day
[11] = Cmax in Sprague-Dawley rat at 20 mg/kg, po measured after 15 to 720 mins by LC-MS/MS analysis; assay type: ADME, organism-based; set-up: route oral, dose 20 mg/kg, time 15-720 min; details: in vivo
[12] = AUC (0 to infinity) in Sprague-Dawley rat at 20 mg/kg, po measured after 15 to 720 mins by LC-MS/MS analysis; assay type: ADME, organism-based; set-up: route oral, time lower 15 min, dose 20 mg/kg, time upper 720 min; details: in vivo
[13] = test system: Human immunodeficiency virus 1; test: Antiviral activity against HIV1 RES056 infected in human MT4 cells assessed as reduction in virus-induced cytopathogenic effect by MTT assay; details: Human immunodeficiency virus 1, RES056, MT4
[14] = test system: Human immunodeficiency virus 1; test: Antiviral activity against HIV1 harboring F227L/V106A mutant infected in human MT4 cells assessed as reduction in virus-induced cytopathogenic effect by MTT assay; assay type: functional, organism-based; details: Human immunodeficiency virus 1, MT4
[15] = Cmax in Sprague-Dawley rat at 2 mg/kg, iv measured after 5 to 600 mins by LC-MS/MS analysis; assay type: ADME, organism-based; set-up: route intravenous, time lower 5 min, dose 2 mg/kg, time upper 600 min; details: in vivo
[16] = test system: Human immunodeficiency virus 1; test: Antiviral activity against HIV1 3B infected in human MT4 cells assessed as reduction in virus-induced cytopathogenic effect by MTT assay; details: Human immunodeficiency virus 1, 3B
[17] = Tmax in Sprague-Dawley rat at 2 mg/kg, iv measured after 5 to 600 mins by LC-MS/MS analysis; assay type: ADME, organism-based; details: in vivo, time 5-600 min
[18] = AUC (0 to last) in Sprague-Dawley rat at 20 mg/kg, po measured after 15 to 720 mins by LC-MS/MS analysis; assay type: ADME, organism-based; set-up: route oral, time lower 15 min, dose 20 mg/kg, time upper 720 min; details: in vivo
[19] = Half life in Sprague-Dawley rat at 2 mg/kg, iv measured after 5 to 600 mins by LC-MS/MS analysis; assay type: ADME, organism-based; details: in vivo, time 5-600 min
[20] = Acute toxicity in Kunming mouse assessed as induction of poisoning at 1000 mg/kg, ig measured every day for 7 days; assay type: organism-based; details: in vivo, po, 168 h, time 7 day
[21] = AUC(0 to last) in Sprague-Dawley rat at 2 mg/kg, iv measured after 5 to 600 mins by LC-MS/MS analysis; assay type: ADME, organism-based; set-up: route intravenous, dose 2 mg/kg, time upper 600 min, time lower 5 min; details: in vivo
[22] = target: Human immunodeficiency virus type 1 reverse transcriptase (Human immunodeficiency virus 1, UniProt Q72547); test: Inhibition of wild type HIV1 reverse transcriptase assessed as reduction in biotin-dUTP incorporation into […] incubated for 1 hrs by ELISA
[23] = test system: Human immunodeficiency virus 1; test: Antiviral activity against wild type HIV1 harboring Y181C mutant infected in human MT4 cells assessed as reduction in virus-induced cytopathogenic effect by MTT assay; details: Human immunodeficiency virus 1, MT4
[24] = Stability in human liver microsomes assessed as compound remaining preincubated for 10 mins followed by phosphate buffer addition and incubated for 1 hr and subsequent addition of NADPH regenerating system and measured after 60 mins by LC-MS/MS analysis; assay type: ADME, Microsome; details: time 190 min, read-out: Stability
[25] = AUC(0 to infinity) in Sprague-Dawley rat at 2 mg/kg, iv measured after 5 to 600 mins by LC-MS/MS analysis; assay type: ADME, organism-based; set-up: route intravenous, time 5-600 min, dose 2 mg/kg; details: in vivo
[26] = Clearance in Sprague-Dawley rat at 2 mg/kg, iv measured after 5 to 600 mins by LC-MS/MS analysis; assay type: ADME, organism-based; details: in vivo, time 5-600 min
[27] = Half life in Sprague-Dawley rat at 20 mg/kg, po measured after 15 to 720 mins by LC-MS/MS analysis; assay type: ADME, organism-based; details: in vivo, time 15-720 min
in vitro = details: human, liver microsomes
[28] = MRT (0 to infinity) in Sprague-Dawley rat at 2 mg/kg, iv measured after 5 to 600 mins by LC-MS/MS analysis; assay type: ADME, organism-based; details: in vivo, time 5-600 min
[29] = Acute toxicity in Kunming mouse assessed as effect on growth at 1000 mg/kg, ig measured every day for 7 days; assay type: organism-based; details: in vivo, po, 168 h, time 7 day
[30] = test system: Human immunodeficiency virus 1; test: Antiviral activity against wild type HIV1 harboring Y188L mutant infected in human MT4 cells assessed as reduction in virus-induced cytopathogenic effect by MTT assay; details: Human immunodeficiency virus 1, MT4
[31] = Half life in human liver microsomes preincubated for 10 mins followed by phosphate buffer addition and incubated for 1 hr and subsequent addition of NADPH regenerating system and measured after 2 hrs by LC-MS/MS analysis
[32] = test system: Human immunodeficiency virus 1; details: Human immunodeficiency virus 1, MT4

Cc1cc(/C=C/C#N)cc(C)c1Oc1nc(Nc2ccc(C#N)cc2)nc2c1CSCC2
EC50 [1]: > 284000 nM | EC50 [2]: 4.44 nM | MRT inf [3]: 174 min | EC50 [4]: 4.44 nM | Tmax [5]: 15 min | LD50 at 168 h [6]: > 1000 mg/kg | CC50 [7]: 284000 nM | Activity [8]: Non-Toxic | Vd [9]: 0.702 L/kg | Activity [10]: Non-Toxic | Cmax [11]: 16.6 ng/mL | AUC(0-inf) [12]: 24 ng·h/mL | EC50 [13]: 47.8 nM | EC50 [14]: 42.9 nM | Cmax [15]: 8880 ng/mL | EC50 [16]: 9.67 nM | Tmax [17]: 4.98 min | AUC(0-t) [18]: 19.5 ng·h/mL | half-life [19]: 116 min | Activity [20]: Non-Toxic | AUC(0-t) [21]: 1510 ng·h/mL | IC50 [22]: 81 nM | EC50 [23]: 14.9 nM | remaining at 1 h [24]: 0.3% | AUC(0-inf) [25]: 1510 ng·h/mL | clearance [26]: 23 mL/min/kg | half-life [27]: 121 min | microsomal CLint at 2 h (in vitro): 188 µL/min/mg | MRT inf [28]: 30 min | Activity [29]: Non-Toxic | EC50 [30]: 54.5 nM | half-life at 2 h [31]: 7.4 min | EC50 [32]: 9.78 nM
